Reference: patent publication US6933123B2, “Peptides from the E2, E6, and E7 proteins of human papilloma viruses 16 and 18 for detecting and/or diagnosing cervical and other human papillomavirus associated cancers” (priority 2001, dated 2005)
No end group written: not given here.

What follows are substances tested on antibodies formed against human papillomavirus (HPV) (assay: ELISA immunoassay of titer-plate-bound HPV peptides with subject serum (antibody-peptide complex, HRP anti-human IgG, TMB)). Details: serum of Subject 6 (low pre-test probability, no HPV DNA detected), diluted 1:25; absorbance read at 450 nm.
Assay type: binding
Description: REACTI-BIND™ Maleic Anhydride Activated Polystyrene Plates (Pierce, Rockford, Ill.) may be employed. Each amino acid sequence may be diluted to 12.5 μg/mL with coating buffer (100 mM sodium bicarbonate buffer, pH 9.4). To each titer well, 100 μL (1.25 μg) of the diluted sequence solution may be added. The plate may then be incubated for one hour at room temperature with shaking. The plate may be emptied and residual liquid tapped onto a clean paper towel. Each well may be washed with 100 μL wash buffer (0.1% bovine serum albumin and 0.05% Tween-20 in phosphate buffered saline, pH 7.0). This may be repeated for a total of three times. Each time, the plate may be emptied and residual liquid tapped onto a clean paper towel. To each well, 200 μL of blocking solution (3% bovine serum albumin and 0.05% Tween-20 in phosphate buffered saline, pH 7.0) may be added.
Blocking solution may be left in each well for one minute. The titer plate may then be emptied by inversion. Filling with blocking solution and emptying may be done three times. Finished titer plates may be dried at room temperature and stored at 4° C. for up to four months.
For negative samples, serum may be obtained from virgin females, ages 14 and 15, and from adult sexually active, monogamous women, more than 25 years old, with histories of no Pap smear abnormalities and DNA verification of HPV absence. Positive samples consisted of serum obtained from females diagnosed with cervical cancer or precancerous disease. Subject and control sera may be diluted 1:25 with wash buffer (0.1% bovine serum albumin and […] in phosphate buffered saline, pH 7.0). To each well, 100 μL of diluted serum may be added, and the assay plate incubated for one hour at room temperature with shaking. Each well may then be rinsed three times, each with 200 μL wash buffer. Each rinse may be for five minutes. […]
The bottom of the titer plate may be cleaned with 70% ethanol, and the titer plate loaded into the spectrophotometer. Absorbance may be read at 450 nm, with […] of TMB solution plus […] of 2N HCl used as a blank control.
Substance “HAGGQVILCPTSVFSSNEVSSPE [SEQ ID NO 3, 23 residues making up amino acids 187 through 209 of the HPV 16 E2 oncoprotein]” has an absorbance values of 0.49.
With “Lys Gln Leu Gln His Thr Pro Ser Pro Tyr Ser Ser Thr Val Ser Val Gly Thr Ala Lys Thr Tyr [SEQ ID NO 1]” the absorbance values was 0.44.
For “KHGYTVQFDGICNTMHY [SEQ ID NO 2, 17 residues making up amino acids 112 through 131 of the HPV 16 E2 oncoprotein]”, the absorbance values was 0.32.
